Data as given in ChEMBL document CHEMBL5543112, “Discovery of CBPD-268 as an Exceptionally Potent and Orally Efficacious CBP/p300 PROTAC Degrader Capable of Achieving Tumor Regression” (J Med Chem, 2024).

What was measured:
[1] = test system: LNCaP; assay: Antiproliferative activity against human LNCaP cells assessed as cell growth inhibition incubated for 4 days by celtiter-glo luminescent assay; conditions: 96 h
[2] = Chemical stability of the compound assessed as parent compound remaining measured at 3 hrs; assay type: physicochemical
[3] = Volume of distribution at steady state in ICR mouse at 1 mg/kg, iv measured upto 24 hrs by LC/MS-MS analysis; assay type: ADME, organism-based; conditions: in vivo
[4] = Half life in Sprague-Dawley rat at 3 mg/kg, po measured upto 24 hrs by LC/MS-MS analysis; assay type: ADME, organism-based; conditions: in vivo
[5] = Cmax in Sprague-Dawley rat at 3 mg/kg, po measured upto 24 hrs by LC/MS-MS analysis; assay type: ADME, organism-based; conditions: in vivo
[6] = AUC in ICR mouse at 3 mg/kg, po measured upto 24 hrs by LC/MS-MS analysis; assay type: ADME, organism-based; conditions: in vivo
[7] = Metabolic stability in dog plasma assessed as half life measured upto 120 mins by LC-MS/MS analysis; assay type: ADME, cell-free, Canis lupus familiaris
[8] = Plasma protein binding in mouse by LC-MS analysis; assay type: ADME, cell-free; conditions: read-out: PPB (converted)
[9] = biological target: Cytochrome P450 3A4 (Homo sapiens, UniProt P08684); assay: Inhibition of CYP3A4 (unknown origin) using midazolam as substrate preincubated with compound for 5 mins followed by NADPH addition and measured after 20 mins by LC-MS/MS analysis; assay type: ADME
[10] = Drug distribution in SCID mouse plasma at 1 mg/kg, po measured at 1 hr by LC-MS/MS analysis; assay type: ADME, organism-based
[11] = Drug distribution in SCID mouse plasma at 1 mg/kg, po measured at 6 hrs by LC-MS/MS analysis; assay type: ADME, organism-based
[12] = Drug distribution in SCID mouse plasma at 3 mg/kg, po measured at 1 hr by LC-MS/MS analysis; assay type: ADME, organism-based
[13] = Drug distribution in SCID mouse tumor at 0.3 mg/kg, po measured at 6 hrs by LC-MS/MS analysis; assay type: ADME, organism-based, Neoplasm; conditions: read-out: Ct
[14] = Drug distribution in SCID mouse tumor at 1 mg/kg, po measured at 1 hr by LC-MS/MS analysis; assay type: ADME, organism-based, Neoplasm; conditions: read-out: Ct
[15] = Drug distribution in SCID mouse tumor at 3 mg/kg, po measured at 6 hrs by LC-MS/MS analysis; assay type: ADME, organism-based, Neoplasm; conditions: read-out: Ct
[16] = Drug distribution in SCID mouse liver at 0.3 mg/kg, po measured at 1 hr by LC-MS/MS analysis; assay type: ADME, organism-based; conditions: read-out: Ct
[17] = Drug distribution in SCID mouse liver at 1 mg/kg, po measured at 1 hr by LC-MS/MS analysis; assay type: ADME, organism-based; conditions: read-out: Ct
[18] = Drug distribution in SCID mouse liver at 3 mg/kg, po measured at 6 hrs by LC-MS/MS analysis; assay type: ADME, organism-based; conditions: read-out: Ct
[19] = Drug distribution in SCID mouse liver at 3 mg/kg, po measured at 24 hrs by LC-MS/MS analysis; assay type: ADME, organism-based; conditions: read-out: Ct
[20] = Drug distribution in SCID mouse spleen at 0.3 mg/kg, po measured at 1 hr by LC-MS/MS analysis; assay type: ADME, organism-based; conditions: read-out: Ct
[21] = Drug distribution in SCID mouse spleen at 1 mg/kg, po measured at 6 hrs by LC-MS/MS analysis; assay type: ADME, organism-based; conditions: read-out: Ct
[22] = Drug concentration in SCID mouse plasma at 1 mg/kg, po measured at 1 hr by LC-MS/MS analysis; assay type: ADME, organism-based
[23] = Drug concentration in SCID mouse tumor at 1 mg/kg, po measured at 24 hrs by LC-MS/MS analysis; assay type: ADME, organism-based, Neoplasm; conditions: read-out: Ct
[24] = test system: VCaP; assay: Antitumor activity against human VCaP cells xenografted in SCID mouse assessed as tumor growth inhibition at 1 mg/kg, po administered twice a week for 4 week; assay type: functional; conditions: 672 h, time 4 weeks, read-out: TGI
[25] = test system: VCaP; assay: Antitumor activity against human VCaP cells xenografted in SCID mouse assessed as tumor regression at 3 mg/kg, po administered 3 times a week for 4 weeks; assay type: functional
[26] = test system: CWR22R; assay: Antitumor activity against human 22Rv1 cells xenografted in SCID mouse assessed as tumor growth inhibition at 1 mg/kg, po administered 3 times a week for 3 weeks; assay type: functional; conditions: 22Rv1, 504 h, read-out: TGI
[27] = Toxicity in male BALB/c mouse assessed as effect on body weight loss at 3 to 10 mg/kg, po administered twice a week for 5 to 6 weeks; assay type: organism-based; conditions: in vivo, dose lower 3 mg/kg, time lower 5 weeks, dose upper 10 mg/kg, time upper 6 weeks
[28] = Drug distribution in Sprague-Dawley rat plasma at 10 mg/kg, po measured at 1 hr by LC-MS/MS analysis; assay type: ADME, organism-based
[29] = Drug distribution in Sprague-Dawley rat kidney at 10 mg/kg, po measured at 1 hr by LC-MS/MS analysis; assay type: ADME, organism-based; conditions: read-out: Ct
[30] = Drug distribution in Sprague-Dawley rat liver at 10 mg/kg, po measured at 1 hr by LC-MS/MS analysis; assay type: ADME, organism-based; conditions: read-out: Ct
[31] = Drug distribution in Sprague-Dawley rat spleen at 3 mg/kg, po measured at 24 hrs by LC-MS/MS analysis; assay type: ADME, organism-based; conditions: read-out: Ct
[32] = Drug distribution in Sprague-Dawley rat heart at 10 mg/kg, po measured at 1 hr by LC-MS/MS analysis; assay type: ADME, organism-based; conditions: read-out: Ct
[33] = biological target: Protein cereblon/Histone lysine acetyltransferase CREBBP (Rattus norvegicus, UniProt Q56AP7+Q6JHU9); assay: PROTAC activity at CBP/CRBN in rat RG2 cells assessed as induction of CBP degradation; assay type: cell-based
[34] = Toxicity in immune-competent Sprague-Dawley rat at 1 to 10 mg/kg, po administered twice a week for 5 weeks; assay type: organism-based; conditions: in vivo, 840 h, dose 1-10 mg/kg
[35] = Toxicity in immune-competent Sprague-Dawley rat assessed as change in calcium level at 1 to 10 mg/kg, po administered twice a week for 5 weeks; assay type: organism-based; conditions: in vivo, 840 h, dose 1-10 mg/kg
[36] = Toxicity in immune-competent Sprague-Dawley rat assessed as change in blood urea nitrogen level at 1 to 10 mg/kg, po administered twice a week for 5 weeks; assay type: organism-based; conditions: in vivo, 840 h, dose 1-10 mg/kg
[37] = Toxicity in immune-competent Sprague-Dawley rat assessed as change in albumin level at 1 to 10 mg/kg, po administered twice a week for 5 weeks; assay type: organism-based; conditions: in vivo, 840 h, dose 1-10 mg/kg

Sequence of Cytochrome P450 3A4 (P08684 whole entry): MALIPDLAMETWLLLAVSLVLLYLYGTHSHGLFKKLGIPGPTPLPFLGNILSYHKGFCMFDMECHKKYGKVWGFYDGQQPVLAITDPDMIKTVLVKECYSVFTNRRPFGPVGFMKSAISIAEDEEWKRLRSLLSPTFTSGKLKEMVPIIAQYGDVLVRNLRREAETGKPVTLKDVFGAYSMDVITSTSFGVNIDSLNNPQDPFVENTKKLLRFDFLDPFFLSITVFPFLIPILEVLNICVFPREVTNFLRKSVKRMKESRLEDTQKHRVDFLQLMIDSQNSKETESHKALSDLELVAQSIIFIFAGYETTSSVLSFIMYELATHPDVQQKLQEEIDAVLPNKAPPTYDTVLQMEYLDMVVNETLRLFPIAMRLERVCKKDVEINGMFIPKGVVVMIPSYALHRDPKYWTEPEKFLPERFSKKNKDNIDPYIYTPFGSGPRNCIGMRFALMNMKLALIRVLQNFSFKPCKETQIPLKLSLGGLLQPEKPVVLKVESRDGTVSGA
Sequence of Protein cereblon/Histone lysine acetyltransferase CREBBP (Q56AP7 whole entry): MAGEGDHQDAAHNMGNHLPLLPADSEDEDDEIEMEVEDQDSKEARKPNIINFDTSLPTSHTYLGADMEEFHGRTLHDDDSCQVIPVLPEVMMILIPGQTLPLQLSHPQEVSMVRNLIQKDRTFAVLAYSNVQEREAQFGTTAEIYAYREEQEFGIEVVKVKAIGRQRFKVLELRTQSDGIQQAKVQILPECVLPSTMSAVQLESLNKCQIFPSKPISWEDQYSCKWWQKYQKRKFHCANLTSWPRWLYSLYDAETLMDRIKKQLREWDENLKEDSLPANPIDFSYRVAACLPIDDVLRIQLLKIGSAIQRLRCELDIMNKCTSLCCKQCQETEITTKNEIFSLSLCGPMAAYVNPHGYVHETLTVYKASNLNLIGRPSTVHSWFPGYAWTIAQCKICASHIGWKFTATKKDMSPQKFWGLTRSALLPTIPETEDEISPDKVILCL
Sequence of Protein cereblon/Histone lysine acetyltransferase CREBBP (Q6JHU9 whole entry): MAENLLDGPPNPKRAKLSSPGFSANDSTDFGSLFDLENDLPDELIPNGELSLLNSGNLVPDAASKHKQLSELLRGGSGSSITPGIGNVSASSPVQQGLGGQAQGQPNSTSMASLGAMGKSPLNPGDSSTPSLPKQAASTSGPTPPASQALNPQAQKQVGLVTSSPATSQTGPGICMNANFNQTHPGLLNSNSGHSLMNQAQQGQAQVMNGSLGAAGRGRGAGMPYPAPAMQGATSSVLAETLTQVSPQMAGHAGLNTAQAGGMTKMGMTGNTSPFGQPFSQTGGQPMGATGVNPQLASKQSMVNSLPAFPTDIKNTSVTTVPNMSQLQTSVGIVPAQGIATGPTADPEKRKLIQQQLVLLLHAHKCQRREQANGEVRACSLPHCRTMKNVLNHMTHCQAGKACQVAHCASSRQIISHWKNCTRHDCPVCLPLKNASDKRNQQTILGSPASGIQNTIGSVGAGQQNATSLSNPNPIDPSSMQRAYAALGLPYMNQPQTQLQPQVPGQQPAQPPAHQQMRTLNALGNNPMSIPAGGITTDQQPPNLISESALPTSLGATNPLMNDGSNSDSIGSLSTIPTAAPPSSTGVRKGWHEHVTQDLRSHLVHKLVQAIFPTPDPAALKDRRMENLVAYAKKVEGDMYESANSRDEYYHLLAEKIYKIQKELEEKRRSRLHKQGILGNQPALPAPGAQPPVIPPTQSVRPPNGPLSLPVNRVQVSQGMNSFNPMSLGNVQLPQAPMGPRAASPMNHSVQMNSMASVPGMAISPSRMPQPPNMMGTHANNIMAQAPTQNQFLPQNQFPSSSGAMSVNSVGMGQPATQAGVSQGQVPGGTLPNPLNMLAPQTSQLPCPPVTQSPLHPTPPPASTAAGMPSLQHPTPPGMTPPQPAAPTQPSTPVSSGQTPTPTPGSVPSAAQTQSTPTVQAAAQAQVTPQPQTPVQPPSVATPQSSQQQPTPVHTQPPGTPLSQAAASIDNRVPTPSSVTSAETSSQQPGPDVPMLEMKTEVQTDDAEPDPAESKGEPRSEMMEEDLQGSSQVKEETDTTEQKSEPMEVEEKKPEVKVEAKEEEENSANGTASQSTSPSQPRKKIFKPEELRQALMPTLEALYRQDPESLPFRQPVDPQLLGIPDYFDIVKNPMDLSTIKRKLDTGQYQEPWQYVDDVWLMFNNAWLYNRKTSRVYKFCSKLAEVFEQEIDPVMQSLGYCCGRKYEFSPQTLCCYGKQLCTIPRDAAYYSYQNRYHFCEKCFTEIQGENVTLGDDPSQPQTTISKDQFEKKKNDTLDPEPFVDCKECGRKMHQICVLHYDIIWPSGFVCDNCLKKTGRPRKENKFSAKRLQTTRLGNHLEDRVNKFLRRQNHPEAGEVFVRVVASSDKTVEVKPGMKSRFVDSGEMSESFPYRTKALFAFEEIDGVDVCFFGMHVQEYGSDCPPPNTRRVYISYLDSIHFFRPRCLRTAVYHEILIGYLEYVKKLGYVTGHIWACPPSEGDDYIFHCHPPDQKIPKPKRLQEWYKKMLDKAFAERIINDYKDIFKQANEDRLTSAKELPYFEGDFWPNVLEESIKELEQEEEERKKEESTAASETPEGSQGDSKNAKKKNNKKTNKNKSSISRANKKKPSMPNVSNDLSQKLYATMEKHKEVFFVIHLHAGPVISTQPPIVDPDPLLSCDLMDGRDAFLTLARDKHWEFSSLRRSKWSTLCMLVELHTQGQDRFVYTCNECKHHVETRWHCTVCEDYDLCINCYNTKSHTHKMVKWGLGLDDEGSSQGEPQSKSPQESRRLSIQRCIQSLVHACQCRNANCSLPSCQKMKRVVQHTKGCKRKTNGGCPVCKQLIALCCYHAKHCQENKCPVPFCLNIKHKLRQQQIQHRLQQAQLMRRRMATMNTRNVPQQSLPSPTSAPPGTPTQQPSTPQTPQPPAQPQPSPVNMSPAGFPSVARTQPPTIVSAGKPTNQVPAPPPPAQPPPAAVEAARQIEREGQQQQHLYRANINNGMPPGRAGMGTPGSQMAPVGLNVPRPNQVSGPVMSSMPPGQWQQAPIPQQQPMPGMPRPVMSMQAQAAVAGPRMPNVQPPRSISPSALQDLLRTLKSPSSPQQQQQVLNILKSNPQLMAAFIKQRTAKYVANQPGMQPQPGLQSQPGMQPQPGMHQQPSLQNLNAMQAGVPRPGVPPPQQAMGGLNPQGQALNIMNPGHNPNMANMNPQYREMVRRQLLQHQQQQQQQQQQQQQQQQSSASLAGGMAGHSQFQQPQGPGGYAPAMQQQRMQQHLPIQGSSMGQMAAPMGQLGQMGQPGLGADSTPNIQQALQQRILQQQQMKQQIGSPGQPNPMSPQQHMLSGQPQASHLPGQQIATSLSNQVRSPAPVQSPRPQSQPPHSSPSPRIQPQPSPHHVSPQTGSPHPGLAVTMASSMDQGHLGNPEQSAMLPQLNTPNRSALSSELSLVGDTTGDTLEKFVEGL

IC50 [1]: 10.3 nM
Stability [2]: Stable
Vdss [3]: 4.9 L/kg
half-life [4]: 1.3 h
Cmax [5]: 221 ng/mL
AUC at 24 h [6]: 4190 ng·h/mL
half-life [7]: 1.3 h
fraction unbound [8]: 0.016
IC50 [9]: > 10000 nM
concentration at 1 h [10]: 212 ng/mL
concentration at 6 h [11]: 43.2 ng/mL
concentration at 1 h [12]: 747 ng/mL
concentration at 6 h [13]: 14.4 ng/g
concentration at 1 h [14]: 155 ng/g
concentration at 6 h [15]: 294 ng/g
concentration at 1 h [16]: 323 ng/mL
concentration at 1 h [17]: 1640 ng/mL
concentration at 6 h [18]: 1750 ng/mL
concentration at 24 h [19]: 61.1 ng/mL
concentration at 1 h [20]: 91 ng/mL
concentration at 6 h [21]: 127 ng/mL
concentration at 1 h [22]: 141 ng/mL
concentration at 24 h [23]: 6.3 ng/g
concentration at 1 h [28]: 321 ng/mL
concentration at 1 h [29]: 1170 ng/g
concentration at 1 h [30]: 4100 ng/g
concentration at 24 h [31]: 8.1 ng/g
concentration at 1 h [32]: 638 ng/g
DC50 [33]: 0.1 nM
SMILES: CC(=O)N1CCc2c(c(N3CCCc4cc(-c5cnn(C)c5)c(C(F)F)cc43)nn2[C@H]2CC[C@H](CN3Cc4cc5c(cc4C3)C(=O)N(C3CCC(=O)NC3=O)C5=O)CC2)C1 (some centres not stated)
inhibition in vivo at 1 mg/kg [24]: 81%
Activity [25]: 67%
inhibition in vivo at 1 mg/kg [26]: 54%
Activity [27]: Non-Toxic
Activity [34]: Non-Toxic
Activity [35]: Non-Toxic
Activity [36]: Non-Toxic
Activity [37]: Non-Toxic
